Experimental data as given in PubChem BioAssay (NCI).
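Each compound was tested at five concentrations against cells in 96-well plates for 48 hours. Abbreviation: GI50, concentration required for 50% inhibition of growth. At the TGI there is no net growth.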

Key:
Assay in all cases: NCI anticancer screen, dose series, 48 h; in the data active means GI50 below about 0.43 µM; inactive means the rest
[1] = system: BT-549 breast
[2] = system: OVCAR-3 ovarian
[3] = system: MCF7 breast
[4] = system: MDA-MB-435
[5] = system: CAKI-1 renal
[6] = system: SF-539 CNS
[7] = system: TK-10 renal
[8] = system: HOP-92 NSCLC
[9] = system: EKVX NSCLC
[10] = system: SF-295 CNS
[11] = system: U251 CNS
[12] = system: SNB-75 CNS
[13] = system: COLO 205 colon
[14] = system: DU-145 prostate
[15] = system: SR leukemia
[16] = system: LOX IMVI melanoma
[17] = system: NCI-H23 lung
[18] = system: NCI-H226 lung
[19] = system: UO-31 renal
[20] = system: OVCAR-8 ovarian
[21] = system: OVCAR-4 ovarian
[22] = system: IGROV1 ovarian
[23] = system: K-562 leukemia
[24] = system: HS 578T breast
[25] = system: HT29 colon
[26] = system: PC-3 prostate
[27] = system: SK-MEL-28 melanoma
[28] = system: SK-MEL-5 melanoma
[29] = system: NCI-H522 lung
[30] = system: MALME-3M melanoma
[31] = system: UACC-62 melanoma
[32] = system: T-47D breast
[33] = system: MDA-MB-231 breast
[34] = system: HOP-62 NSCLC
[35] = system: HCT-15 colon
[36] = system: A498 renal
[37] = system: SK-OV-3 ovarian
[38] = system: SW-620 colon
[39] = system: HL-60(TB) leukemia
[40] = system: NCI/ADR-RES ovarian
[41] = system: CCRF-CEM leukemia
[42] = system: UACC-257 melanoma
[43] = system: SN12C renal
[44] = system: ACHN renal
[45] = system: OVCAR-5 ovarian
[46] = system: RPMI-8226 leukemia
[47] = system: 786-0 renal
[48] = system: SF-268 CNS
[49] = system: HCC-2998 colon
[50] = system: A549 NSCLC
[51] = system: SNB-19 CNS
[52] = system: NCI-H460 lung
[53] = system: MOLT-4 leukemia
[54] = system: RXF 393 renal
[55] = system: KM12 colon
[56] = system: HCT-116 colon
[57] = system: SK-MEL-2 melanoma
[58] = system: M14 melanoma
[59] = system: MDA-N

BrCc1cccc(C[P+](c2ccccc2)(c2ccccc2)c2ccccc2)c1
24 µM: TGI [28]
49.9 µM: TGI [39]
inactive: GI50 [1] 34.5 µM | GI50 [2] 10.8 µM | GI50 [3] 13.4 µM | GI50 [4] 8.38 µM | GI50 [5] > 100 µM | GI50 [6] 6.05 µM | GI50 [7] 12.5 µM | GI50 [8] 2840 nM | GI50 [9] 18.1 µM | GI50 [10] 35.5 µM | GI50 [11] 6.86 µM | GI50 [12] 6.78 µM | GI50 [13] 4.57 µM | GI50 [14] 52.9 µM | GI50 [15] 25.8 µM | GI50 [16] 14 µM | GI50 [17] 36.2 µM | GI50 [18] 45 µM | GI50 [19] > 100 µM | GI50 [20] 6.65 µM | GI50 [21] 9.02 µM | GI50 [22] 21.6 µM | GI50 [23] 4.26 µM | GI50 [24] 18.4 µM | GI50 [25] 14.9 µM | GI50 [26] 6.26 µM | GI50 [27] 21.7 µM | GI50 [28] 5.14 µM | GI50 [29] 6.88 µM | GI50 [30] 82.8 µM | GI50 [31] 7.97 µM | GI50 [32] 3.99 µM | GI50 [33] 33 µM | GI50 [34] 4.86 µM | GI50 [35] > 100 µM | GI50 [36] 59.5 µM | GI50 [37] 70.1 µM | GI50 [38] 22.3 µM | GI50 [39] 13.9 µM | GI50 [40] > 100 µM | GI50 [41] 13.3 µM | GI50 [42] 5.49 µM | GI50 [43] 18.4 µM | GI50 [44] > 100 µM | GI50 [45] 30.2 µM | GI50 [46] 2180 nM | GI50 [47] 46.2 µM | GI50 [48] 40.4 µM | GI50 [49] 21.8 µM | GI50 [50] 42.3 µM | GI50 [51] 12.1 µM | GI50 [52] 25 µM | GI50 [53] 65 µM | GI50 [54] 54.7 µM | GI50 [55] 16 µM | GI50 [56] 6.02 µM | GI50 [57] 27.9 µM
> 100 µM: TGI [1] | TGI [2] | TGI [3] | TGI [4] | TGI [5] | TGI [6] | TGI [7] | TGI [9] | TGI [10] | TGI [11] | TGI [12] | TGI [14] | TGI [15] | TGI [16] | TGI [17] | TGI [18] | TGI [19] | TGI [20] | TGI [21] | TGI [22] | TGI [23] | TGI [24] | TGI [25] | TGI [26] | TGI [27] | TGI [29] | TGI [30] | TGI [31] | TGI [32] | TGI [33] | TGI [34] | TGI [35] | TGI [36] | TGI [37] | TGI [38] | TGI [40] | TGI [41] | TGI [42] | TGI [43] | TGI [44] | TGI [45] | TGI [47] | TGI [48] | TGI [49] | TGI [50] | TGI [51] | TGI [52] | TGI [53] | TGI [54] | TGI [55] | TGI [56] | TGI [57]
18.9 µM: TGI [13]
22.7 µM: TGI [46]
52.4 µM: TGI [8]

COc1cccc(C2c3cc4c(cc3OC(C)(N3CCCC3)C2C)OCO4)c1 (centres undefined)
70 µM: TGI [42]
27.4 µM: TGI [33]
37.9 µM: TGI [22]
14.5 µM: TGI [28]
44.2 µM: TGI [35]
92.1 µM: TGI [9]
27.3 µM: TGI [18]
15 µM: TGI [25]
19.9 µM: TGI [24]
4.02 µM: TGI [59]
49.6 µM: TGI [14]
35.8 µM: TGI [11]
62.2 µM: TGI [26]
73.9 µM: TGI [10]
17.8 µM: TGI [55]
5.7 µM: TGI [29]
85.3 µM: TGI [36]
32.1 µM: TGI [50]
26.4 µM: TGI [52]
47.5 µM: TGI [45]
40.2 µM: TGI [40]
75 µM: TGI [21]
37.2 µM: TGI [6] | TGI [7]
45.7 µM: TGI [3]
64.1 µM: TGI [20]
39.9 µM: TGI [19]
51.9 µM: TGI [54]
> 100 µM: TGI [15] | TGI [23] | TGI [27] | TGI [38] | TGI [39] | TGI [41] | TGI [47] | TGI [48] | TGI [51] | TGI [53]
13.9 µM: TGI [58]
71.1 µM: TGI [17]
25.1 µM: TGI [16]
26.6 µM: TGI [56]
82.3 µM: TGI [44]
22 µM: TGI [2]
48.6 µM: TGI [43]
64 µM: TGI [32]
64.7 µM: TGI [30]
32.8 µM: TGI [49]
59.8 µM: TGI [5]
23.6 µM: TGI [13] | TGI [31]
26.5 µM: TGI [12]
42.2 µM: TGI [8]
20.6 µM: TGI [34]
11.2 µM: TGI [57]
32.9 µM: TGI [4]
41.5 µM: TGI [37]

Cc1cc(C(F)(F)F)cc(-n2nc(NS(=O)(=O)c3cc(C)c(Cl)cc3S)nc2N)n1
56.1 µM: TGI [36]
77.8 µM: TGI [39]
94.1 µM: TGI [40]
70.7 µM: TGI [52]
69.5 µM: TGI [53]
54.1 µM: TGI [41]
> 100 µM: TGI [2] | TGI [3] | TGI [4] | TGI [5] | TGI [7] | TGI [8] | TGI [9] | TGI [10] | TGI [11] | TGI [12] | TGI [13] | TGI [15] | TGI [16] | TGI [18] | TGI [58] | TGI [20] | TGI [21] | TGI [22] | TGI [23] | TGI [24] | TGI [25] | TGI [26] | TGI [27] | TGI [28] | TGI [30] | TGI [31] | TGI [32] | TGI [33] | TGI [34] | TGI [35] | TGI [37] | TGI [38] | TGI [42] | TGI [43] | TGI [44] | TGI [46] | TGI [47] | TGI [48] | TGI [49] | TGI [50] | TGI [51] | TGI [59] | TGI [54] | TGI [55] | TGI [56] | TGI [57]
91.5 µM: TGI [29]
